± gives the standard deviation of the averaged measurements.
Compound: CC(=O)N1CCc2c(c(N3CCCc4cc(-c5cnn(C)c5)c(C(F)F)cc43)nn2C2CCC(CN3CCN(c4ccc5c(c4)C(=O)N(C4CCC(=O)NC4=O)C5=O)CC3)CC2)C1 [CBPD-409]
Assay: AUC of viability dose-response curve (relative to vehicle, 8 doses up to 10 µM) (fraction); higher = less sensitive (more viable); extreme values may be limits of the assay
Method: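 PRISM multiplexed pooled barcoded cell line viability screen at the Broad Institute, 887 cancer cell lines treated with CBPD-409 (p300/CBP PROTAC degrader) at 8 concentrations in threefold dilution, top dose 10 µM. The read-out is the area under the dose-response curve of relative viability versus vehicle (n=3). AUC < 0.3 is called strongly sensitive and AUC > 0.8 resistant.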

Test System	AUC of viability dose-response curve
COGAR359_SOFT_TISSUE	1
OZ_BILIARY_TRACT	0.851
BFTC905_URINARY_TRACT	0.443
TC205_BONE	0.543
DANG_PANCREAS	1
NCIH1915_LUNG	0.697
HCT116_LARGE_INTESTINE	0.998
SNU1076_UPPER_AERODIGESTIVE_TRACT	0.845
RERFLCKJ_LUNG	1
HUO9_BONE	0.679
PATU8902_PANCREAS	0.689
TT1TKB_LARGE_INTESTINE	1
MB1_THYROID	0.776
CHLA06ATRT_SOFT_TISSUE	1
C4I_CERVIX	0.999
NCIH446_LUNG	0.445
A673_BONE	1
A3KAW_HAEMATOPOIETIC_AND_LYMPHOID_TISSUE	0.325
NCIH2196_LUNG	1
LAMA84_HAEMATOPOIETIC_AND_LYMPHOID_TISSUE	0.832
SW900_LUNG	0.853
ACCMESO1_PLEURA	1
LPS141_SOFT_TISSUE	1
ICC137_BILIARY_TRACT	0.501

Test System	AUC of viability dose-response curve
SUDHL4_HAEMATOPOIETIC_AND_LYMPHOID_TISSUE	0.958
SNU81_LARGE_INTESTINE	0.767
NCIH157DM_LUNG	0.559
GI1_CENTRAL_NERVOUS_SYSTEM	0.602
SUM159PT_BREAST	0.732
FADU_UPPER_AERODIGESTIVE_TRACT	0.844
LOUNH91_LUNG	0.731
DU145_PROSTATE	0.946
SNU398_LIVER	0.849
IPC298_SKIN	0.808
SNU423_LIVER	0.751
NCIH23_LUNG	0.771
YD15_SALIVARY_GLAND	0.397
RERFLCAD1_LUNG	1
OVCAR8_OVARY	0.486
KMRC20_KIDNEY	0.738
CAL29_URINARY_TRACT	0.7
KARPAS422_HAEMATOPOIETIC_AND_LYMPHOID_TISSUE	0.752
95T1000_SOFT_TISSUE	0.44
NCIH2009_LUNG	0.596
GP2D_LARGE_INTESTINE	0.847
PK1_PANCREAS	0.685
BT549_BREAST	1
KYO1_HAEMATOPOIETIC_AND_LYMPHOID_TISSUE	0.628

Test System	AUC of viability dose-response curve
NCIH1581_LUNG	0.347
CHLA15_AUTONOMIC_GANGLIA	0.551
SNU1544_LARGE_INTESTINE	0.806
NCIH2171_LUNG	1
G292CLONEA141B1_BONE	0.585 ± 0.31
GCIY_STOMACH	0.542
DOHH2_HAEMATOPOIETIC_AND_LYMPHOID_TISSUE	0.468
HEPG2_LIVER	1
CORL105_LUNG	0.747
JHH4_LIVER	0.997
OCIM1_HAEMATOPOIETIC_AND_LYMPHOID_TISSUE	0.286
253JBV_URINARY_TRACT	1
UPCISCC116_UPPER_AERODIGESTIVE_TRACT	0.827
EB1_HAEMATOPOIETIC_AND_LYMPHOID_TISSUE	1
NCIH2023_LUNG	1
HOS_BONE	0.931 ± 0.027
OE21_OESOPHAGUS	1
BHT101_THYROID	0.581
TE11_OESOPHAGUS	0.986
ASPC1_PANCREAS	0.845
UW228_CENTRAL_NERVOUS_SYSTEM	1
PK59_PANCREAS	0.694
ICC8_BILIARY_TRACT	1
HPAC_PANCREAS	1

Test System	AUC of viability dose-response curve
U2973_HAEMATOPOIETIC_AND_LYMPHOID_TISSUE	0.734
HEC265_ENDOMETRIUM	0.695
VMRCRCW_KIDNEY	0.631
MMNK1_BILIARY_TRACT	0.479
DOTC24510_CERVIX	0.344
BDCM_HAEMATOPOIETIC_AND_LYMPHOID_TISSUE	0.431
A375_SKIN	0.47
SW480_LARGE_INTESTINE	1
SKNDZ_AUTONOMIC_GANGLIA	0.267
NCO2_HAEMATOPOIETIC_AND_LYMPHOID_TISSUE	0.243
BICR22_UPPER_AERODIGESTIVE_TRACT	0.901
VAESBJ_SOFT_TISSUE	0.8
FTC238_THYROID	0.734
MDAMB361_BREAST	0.368
NUDHL1_HAEMATOPOIETIC_AND_LYMPHOID_TISSUE	0.67
SW626_LARGE_INTESTINE	0.387
KKU213_BILIARY_TRACT	0.767
NP5_CENTRAL_NERVOUS_SYSTEM	0.488
OCUG1_BILIARY_TRACT	1
SUIT2_PANCREAS	1
A498_KIDNEY	0.943
H103_UPPER_AERODIGESTIVE_TRACT	0.997
SNU1041_UPPER_AERODIGESTIVE_TRACT	0.703
OC316_OVARY	0.486

Test System	AUC of viability dose-response curve
WAOSEL_HAEMATOPOIETIC_AND_LYMPHOID_TISSUE	0.826
SW1088_CENTRAL_NERVOUS_SYSTEM	1
SNU1066_UPPER_AERODIGESTIVE_TRACT	1
LS513_LARGE_INTESTINE	0.568
RDES_BONE	0.484
ACHN_KIDNEY	0.807
ESS1_ENDOMETRIUM	0.901
HEC108_ENDOMETRIUM	0.693
KNS60_CENTRAL_NERVOUS_SYSTEM	0.779
CW9019_SOFT_TISSUE	0.735
TGBC52TKB_BILIARY_TRACT	0.745
HEL9217_HAEMATOPOIETIC_AND_LYMPHOID_TISSUE	0.229
HCA1_CERVIX	0.811
NCIH460_LUNG	1
KMS28BM_HAEMATOPOIETIC_AND_LYMPHOID_TISSUE	0.583
SNU2372_BREAST	1
TTC549_SOFT_TISSUE	0.52
G415_BILIARY_TRACT	0.902
DAOY_CENTRAL_NERVOUS_SYSTEM	0.958 ± 0.059
LNZ308_CENTRAL_NERVOUS_SYSTEM	0.998
SNU869_BILIARY_TRACT	1
RT4_URINARY_TRACT	0.887
TCCSUP_URINARY_TRACT	1
NCIH1373_LUNG	1

Test System	AUC of viability dose-response curve
JHOC5_OVARY	1
BEN_LUNG	0.562
PANC0203_PANCREAS	0.751
697_HAEMATOPOIETIC_AND_LYMPHOID_TISSUE	0.293
HPBALL_HAEMATOPOIETIC_AND_LYMPHOID_TISSUE	0.878
GAMG_CENTRAL_NERVOUS_SYSTEM	0.77
NCIH747_LARGE_INTESTINE	1
HCC44_LUNG	1
MDAMB435S_SKIN	1
BICR16_UPPER_AERODIGESTIVE_TRACT	0.181
UMUC7_URINARY_TRACT	1
HEC6_ENDOMETRIUM	0.645
TOV112D_OVARY	0.724
C80_LARGE_INTESTINE	0.689
2313287_STOMACH	0.631
SH4_SKIN	0.409
RL952_ENDOMETRIUM	0.996
NP2_CENTRAL_NERVOUS_SYSTEM	0.868
HCT15_LARGE_INTESTINE	0.354
TC32_BONE	0.859
TCCPAN2_PANCREAS	0.875
